# Assay results published in patent US20030050306A1, “Novel heteroaryl derivatives, their preparation and use” (H. Lundbeck A/S, priority 1999, published 2003).
# Tests used:
# [1] = biological target: T1, cloned human 5-HT1A receptors (Homo sapiens, UniProt P08908); experiment: Inhibition of 3H-5-CT binding to human 5-HT1A receptors; settings: cloned human 5-HT1A receptors in HeLa cells (HA7); for inhibition at 0.1 µM: at 100 nM
# T1 construct: expressed in transfected cells; host or cells: HeLa cells (HA7)
# T1 sequence (P08908 1-422): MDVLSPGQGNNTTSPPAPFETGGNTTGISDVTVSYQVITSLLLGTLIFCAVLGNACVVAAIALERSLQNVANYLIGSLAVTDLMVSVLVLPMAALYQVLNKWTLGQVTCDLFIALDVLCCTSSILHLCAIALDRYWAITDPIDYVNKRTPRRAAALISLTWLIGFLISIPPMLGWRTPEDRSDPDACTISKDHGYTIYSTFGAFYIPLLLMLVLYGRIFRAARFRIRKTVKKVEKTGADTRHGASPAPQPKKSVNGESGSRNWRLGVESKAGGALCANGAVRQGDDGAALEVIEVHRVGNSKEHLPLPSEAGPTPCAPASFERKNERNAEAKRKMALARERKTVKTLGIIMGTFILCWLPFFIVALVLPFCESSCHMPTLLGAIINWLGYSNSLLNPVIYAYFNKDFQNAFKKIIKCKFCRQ
# Description: The affinity of the compounds of the invention to 5-HT1A receptors was determined by measuring the inhibition of binding of a radioactive ligand at 5-HT1A receptors as described in the following test:
# Inhibition of ^3H-5-CT Binding to Human 5-HT1A Receptors
# By this method the inhibition by drugs of the binding of the 5-HT1A agonist ^3H-5-carboxamido tryptamine (3H-5-CT) to cloned human 5-HT1A receptors stably expressed in transfected HeLa cells (HA7) (Fargin, A. et al, J. Biol. Chem., 1989, 264, 14848) is determined in vitro. The assay was performed as a modification of the method described by Harrington, M. A. et at, J. Pharmacol. Exp. Ther., 1994, 268, 1098. Human 5-HT1A receptors (40 μg of cell homogenate) were incubated for 15 minutes at 37° C. in 50 mM Tris buffer at pH 7.7 in the presence of ^3H-5-CT. Non-specific binding was determined by including 10 μM of metergoline. The reaction was terminated by rapid filtration through Unifilter GF/B filters on a Tomtec Cell Harvester. Filters were counted in a Packard Top Counter.
# [2] = biological target: T2, human cloned dopamine D4.2 receptors (Homo sapiens, UniProt P21917, DEL265-296); experiment: Inhibition of the binding of 3H-YM-09151-2 to human dopamine D4 receptors; settings: human cloned dopamine D4.2 receptors in CHO-cells
# T2 construct: expressed in transfected cells; host or cells: CHO cells
# T2 sequence (P21917 with tags, fused parts or gaps DEL265-296): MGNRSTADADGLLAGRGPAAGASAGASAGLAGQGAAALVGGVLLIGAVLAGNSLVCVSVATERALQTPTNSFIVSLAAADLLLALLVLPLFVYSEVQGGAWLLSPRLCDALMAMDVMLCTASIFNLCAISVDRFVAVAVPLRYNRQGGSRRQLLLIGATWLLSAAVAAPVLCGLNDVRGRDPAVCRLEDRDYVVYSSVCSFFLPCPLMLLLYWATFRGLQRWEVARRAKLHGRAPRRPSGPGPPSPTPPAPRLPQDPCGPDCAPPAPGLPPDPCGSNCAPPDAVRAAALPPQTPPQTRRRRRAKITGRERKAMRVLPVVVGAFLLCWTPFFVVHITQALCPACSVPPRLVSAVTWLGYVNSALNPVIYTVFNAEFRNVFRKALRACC
# Description: The compounds of the invention have also been tested for their affinity to dopamine D4 receptors in the following test.
# Inhibition of the Binding of ^3H-YM-09151-2 to Human Dopamine D4 Receptors
# By this method the inhibition by drugs of the binding of [^3H]YM-09151-2 (0.06 nM) to membranes of human cloned dopamine D4.2 receptors expressed in CHO-cells is determined in vitro. Method modified from NEN Life Science Products, Inc., technical data certificate PC2533-10/96.
Structure (SMILES),inhibition at 0.1 µM [1] [%],IC50 [2] [nM],IC50 [1] [nM],inhibition at 0.05 µM ([2]; at 50 nM) [%]
"Cc1cccc(Cl)c1SCCCCN1CCN(c2cc(Cl)cc3c2OC(C)(C)C3)CC1 [Compound 5ax, 1-(5-Chloro-2,2-dimethyl-2,3-dihydro-benzofuran-7-yl)-4-[4-(2-chloro-6-methyl-phenylsulfanyl)-butyl]-piperazine]",33,23,–,–
"Cc1cccc(Cl)c1SCCCCN1CCN(c2cc(Cl)cc3c2OCC3(C)C)CC1 [Compound 5ay, 1-(5-Chloro-3,3-dimethyl-2,3-dihydro-benzofuran-7-yl)-4-[4-(2-chloro-6-methyl-phenylsulfanyl)-butyl]-piperazine]",14,12,–,–
"CC1(C)Cc2cc(Cl)cc(N3CCN(CCCSc4c(Cl)cccc4Cl)CC3)c2O1 [Compound 5az, 1-(5-Chloro-2,2-dimethyl-2,3-dihydro-benzofuran-7-yl)-4-[3-(2,6-dichloro-phenylsulfanyl)-propyl]-piperazine]",18,9.9,–,–
"Fc1ccc(OCCCCN2CCN(c3cccc4ccsc34)CC2)c(Cl)c1 [Compound 5bc, 1-Benzo[b]thiophen-7-yl-4-[4-(2-chloro-4-fluoro-phenoxy)-butyl]-piperazine]",–,1.9,53,–
"CC1(C)Cc2cc(Cl)cc(N3CCN(CCCCOc4ccc(F)cc4Cl)CC3)c2O1 [Compound 5bd, 1-(5-Chloro-2,2-dimethyl-2,3-dihydro-benzofuran-7-yl)-4-[4-(2-chloro-4-fluoro-phenoxy)-butyl]-piperazine]",–,6.5,52,–
"Fc1ccc(OCCCCN2CCN(c3cccc4c3OCCO4)CC2)c(Br)c1 [Compound 5be, 1-[4-(2-Bromo-4-fluoro-phenoxy)-butyl]-4-(2,3-dihydro-benzo[1,4]dioxin-5-yl)-piperazine]",–,1.2,8,–
"Fc1ccc(OCCCCN2CCN(c3cccc4ccsc34)CC2)c(Br)c1 [Compound 5bf, 1-Benzo[b]thiophen-7-yl-4-[4-(2-bromo-4-fluoro-phenoxy)-butyl]-piperazine]",–,3.1,35,–
"CC1(C)Cc2cc(Cl)cc(N3CCN(CCCOc4c(Cl)cc(S(C)(=O)=O)cc4Cl)CC3)c2O1 [Compound 5bh, 1-(5-Chloro-2,2-dimethyl-2,3-dihydro-benzofuran-7-yl)-4-[3-(2,6-dichloro-4-methanesulfonyl-phenoxy)-propyl]-piperazine]",–,76,1.7,–
"CC1(C)COc2c(N3CCN(CCCOc4c(Cl)cc(S(C)(=O)=O)cc4Cl)CC3)cc(Cl)cc21 [Compound 5bi, 1-(5-Chloro-3,3-dimethyl-2,3-dihydro-benzofuran-7-yl)-4-[3-(2,6-dichloro-4-methanesulfonyl-phenoxy)-propyl]-piperazine]",–,87,3.5,–
"CC1(C)Cc2cc(Cl)cc(N3CCN(CCCOc4c(Cl)cc(F)cc4Cl)CC3)c2O1 [Compound 5bk, 1-(5-Chloro-2,2-dimethyl-2,3-dihydro-benzofuran-7-yl)-4-[3-(2,6-dichloro-4-fluoro-phenoxy)-propyl]-piperazine]",–,11,22,–
"CC1(C)COc2c(N3CCN(CCCOc4c(Cl)cc(F)cc4Cl)CC3)cc(Cl)cc21 [Compound 5bl, 1-(5-Chloro-3,3-dimethyl-2,3-dihydro-benzofuran-7-yl)-4-[3-(2,6-dichloro-4-fluoro-phenoxy)-propyl]-piperazine]",–,26,88,–
"Fc1cc(F)c(OCCCN2CCN(c3cccc4c3OCCO4)CC2)c(Br)c1 [Compound 5bo, 1-[3-(2-Bromo-4,6-difluoro-phenoxy)-propyl]-4-(2,3-dihydro-benzo[1,4]dioxin-5-yl)-piperazine]",–,2.4,1.7,–
"Fc1cc(Cl)c(OCCCCN2CCN(c3cccc4c3OCCO4)CC2)c(Cl)c1 [Compound 5bp, 1-[4-(2,6-Dichloro-4-fluoro-phenoxy)-butyl]-4-(2,3-dihydro-benzo[1,4]dioxin-5-yl)-piperazine]",–,6.2,4.8,–
"Brc1cc(Br)c(OCCCN2CCN(c3cccc4c3OCCO4)CC2)c(Br)c1 [Compound 5bq, 1-(2,3-Dihydro-benzof[1,4]dioxin-5-yl)-4-[3-(2,4,6-tribromo-phenoxy)-propyl]-piperazine]",–,2.4,1.2,–
"Fc1cc(F)c(OCCCN2CCN(c3cccc4ccsc34)CC2)c(Br)c1 [Compound 5bt, 1-Benzo[h]thiophen-7-yl-4-[3-(2-bromo-4,6-difluoro-phenoxy)-propyl]-piperazine]",–,6.3,8.6,–
"N#Cc1cc(Br)c(OCCCN2CCN(c3cccc4c3OCCO4)CC2)c(Br)c1 [Compound 5bx, 3,5-Dibromo-4-{3-[4-(2,3-dihydro-benzo[1,4]dioxin-5-yl)-piperazin-1-yl]-propoxy}-benzonitrile]",–,19,2.2,–
Fc1cc(Br)c(OCCCCN2CCN(c3cccc4c3OCCO4)CC2)c(Br)c1 [Compound 5by],–,4.3,2.5,–
"Fc1cc(Br)cc(F)c1OCCCCN1CCN(c2cccc3c2OCCO3)CC1 [Compound 5bz, 1-[4-(4-Bromo-2,6-difluoro-phenoxy)-butyl]-4-(2,3-dihydro-benzo[1,4]dioxin-5-yl)-piperazine]",–,10,5,–
"Fc1cc(Br)cc(F)c1OCCCCN1CCN(c2cccc3ccsc23)CC1 [Compound 5cc, 1-Benzo[b]thiophen-7-yl-4-[4-(4-bromo-2,6-difluoro-phenoxy)-butyl]-piperazine]",–,34,9.7,–
"Clc1ccccc1SCCCN1CCN(c2cccc3c2OCCO3)CC1 [Compound 5cd, 1-[3-(2-Chloro-phenylsulfanyl)-propyl]-4-(2,3-dihydro-benzo[1,4]dioxin-5-yl)-piperazine]",–,2.3,8.8,–
"Clc1ccccc1SCCCN1CCN(c2cccc3ccsc23)CC1 [Compound 5ce, 1-Benzo[b]thiophen-7-yl-4-[3-(2-chloro-phenylsulfanyl)-propyl]-piperazine]",–,16,4.8,–
"Fc1ccc(OCCCN2CCN(c3cccc4c3OCCO4)CC2)c(F)c1 [Compound 5cf, 1-[3-(2,4-Difluoro-phenoxy)-propyl]-4-(2,3-dihydro-benzo[1,4]dioxin-5-yl)-piperazine]",–,1.4,4.9,–
"Fc1cc(Br)cc(F)c1OCCCN1CCN(c2cccc3c2OCCO3)CC1 [Compound 5cg, 1-[3-(4-Bromo-2,6-difluoro-phenoxy)-propyl]-4-(2,3-dihydro-benzo[1,4]dioxin-5-yl)-piperazine]",–,12,1.7,–
"Fc1ccc(OCCCN2CCN(c3cccc4ccsc34)CC2)c(F)c1 [Compound 5ci, 1-Benzo[b]thiophen-7-yl-4-[3-(2,4-difluoro-phenoxy)-propyl]-piperazine]",–,2,3.5,–
"Fc1cc(Br)cc(F)c1OCCCN1CCN(c2cccc3ccsc23)CC1 [Compound 5cj, 1-Benzo[b]thiophen-7-yl-4-[3-(4-bromo-2,6-difluoro-phenoxy)-propyl]-piperazine]",93,59,–,–
"N#Cc1ccc(N2CCN(CCCOc3ccc(F)cc3Cl)CC2)c2c1OCCO2 [Compound 5ck, 8-{4-[3-(2-chloro-4-fluorophenoxy)-propyl]-piperazin-1-yl}-2,3-dihydro-benzo[1,4]dioxine-5-carbonitrile]",–,–,180,77
